Key:
[1] = HPN-100-009 (Example 2): plasma PBA, PAA, PAGN PK on first full day of RAVICTI dosing; type: in vivo, human; conditions: Age 2 Months to <2 Years, mean (SD)
Source text: Plasma Phenylbutyrate/Phenylbutyric Acid (PB A) 1) Maximum Plasma Concentration (Cmax); 2) Minimum Plasma Concentration (Cmin); 3) Area Under the Curve from Time Zero to the Time of Last Quantifiable Concentration (AUC[0-Last]); and 4) Time to Cmax (Tmax) on the First Full Day of RAVICTI® Dosing.
End point description. Pharmacokinetic (PK) Evaluable Population: all subjects from the safety population with individual concentration-time profiles that allow computation of meaningful PK parameter values. End point timeframe: Hour 0 and between 4 and 6 hours, 8 hours, and between 12 and 24 hours after the first dose of the day on Day 1 for stable subjects and on Day 2 for subjects in HAC.
Plasma Phenylacetate/Phenylacetic Acid (PAA) 1) Maximum Plasma Concentration (Cmax); 2) Minimum Plasma Concentration (Cmin); 3) Area Under the Curve from Time Zero to the Time of Last Quantifiable Concentration (AUC[0-Last]); and 4) Time to Cmax (Tmax) on the First Full Day of RAVICTI® Dosing.
End point description. PK Evaluable Population: all subjects from the safety population with individual concentration-time profiles that allow computation of meaningful PK parameter values. End point timeframe: Hour 0 and between 4 and 6 hours, 8 hours, and between 12 and 24 hours after the first dose of the day on Day 1 for stable subjects and on Day 2 for subjects in HAC.
Plasma Phenylacetylglutamine (PAGN) 1) Maximum Plasma Concentration (Cmax); 2) Minimum Plasma Concentration (Cmin); 3) Area Under the Curve from Time Zero to the Time of Last Quantifiable Concentration (AUC[0-Last]); and 4) Time to Cmax (Tmax) on the First Full Day of RAVICTI® Dosing.

UCD patients [2] = test: Example 3: BMI and BSA Z-scores up to Month 24; type: in vivo, human
Protocol: Baseline and Change from Baseline in Body Mass Index (BMI) Z-Score Up to Month 24
To assess any effect of study drug treatment on growth, Z-scores were calculated to express the deviation from a reference population for BMI. The Z-scores are based on the World Health Organization's Child Growth Standards charts. Negative Z-scores indicate lower than typical for age and gender while positive scores indicate higher than typical for age and gender. BMI measurements were taken on month 1, month 2, month 3, month 4, month 5, month 6, month 9, month 12, month 15, month 18, and month 24.
Baseline and Change from Baseline in Body Surface Area (BSA) Z-Score Up to Month 24
To assess any effect of study drug treatment on growth, Z-scores were calculated to express the deviation from a reference population for BSA. The Z-scores are based on weight-for-length charts. Negative Z-scores indicate lower than typical for age and gender while positive scores indicate higher than typical for age and gender. BMI measurements were taken on month 1, month 2, month 3, month 4, month 5, month 6, month 9, month 12, month 15, month 18, and month 24.

[3] = test system: pediatric patients with UCDs; test: HPN-100-012 switch-over study: 24-hour blood ammonia on HPN-100 vs NaPBA; type: in vivo, human
Source text: HPN-100-012 was an open-label, fixed sequence, switch-over study of the safety, PK and efficacy of HPN-100 compared to NaPBA in patients with UCDs, with a 12-month safety extension part. […] After review of all the safety data by the DSMB, 8 additional subjects were enrolled in the study after the switch-over phase was completed.

UCD patients [4] = conditions: 4 patients aged 2 months to 2 years; cited from earlier work
[5] = Age 2 months to <2 years, Month 1
[6] = Age 2 months to <2 years, Month 2
[7] = Age 2 months to <2 years, Month 3
[8] = Age 2 months to <2 years, Month 4
[9] = Age 2 months to <2 years, Month 5
[10] = Age 2 months to <2 years, Month 6
[11] = Age 2 months to <2 years, Month 9
[12] = Age 2 months to <2 years, Month 12
[13] = Age 2 months to <2 years, Month 15
[14] = Age 2 months to <2 years, Month 18
[15] = Age 2 months to <2 years, Month 24
[16] = original scale, non-inferiority upper margin 1.25

## O=C(CCCc1ccccc1)OCC(COC(=O)CCCc1ccccc1)OC(=O)CCCc1ccccc1 [RAVICTI, benzenebutanoic acid, 1′,1″-(1,2,3-propanetriyl) ester]
[1]
  Plasma PAA AUC[0-last]: 246.126 (±238.547) (μg * hr/mL)
  Plasma PAA Cmax: 36.52 (±31.784) (μg/mL)
  Plasma PAA Cmin: 4.197 (±6.434) (μg/mL)
  Plasma PAA Tmax: 7.422 (±7.351) (hrs)
  Plasma PAGN AUC[0-last]: 583.835 (±285.241) (μg * hr/mL)
  Plasma PAGN Cmax: 62.45 (±27.281) (μg/mL)
  Plasma PAGN Cmin: 20.62 (±14.529) (μg/mL)
  Plasma PAGN Tmax: 6.573 (±7.181) (hrs)
  Plasma PBA AUC[0-last]: 280.936 (±293.553) (μg * hr/mL)
  Plasma PBA Cmax: 42.44 (±36.715) (μg/mL)
  Plasma PBA Cmin: 1.697 (±2.254) (μg/mL)
  Plasma PBA Tmax: 8.383 (±4.564) (hrs)
UCD patients [2]; Age 0 to <2 Months
  BMI Z-Score baseline: −0.0544 (±1.268);
  BSA Z-Score baseline: −0.1980 (±2.118);
UCD patients [2]; Age 0 to <2 months, Month 1
  BMI Z-Score change from baseline: −0.2158 (±1.36);
  BSA Z-Score change from baseline: 0.2336 (±1.956);
UCD patients [2]; Age 0 to <2 months, Month 2
  BMI Z-Score change from baseline: −0.2598 (±1.195);
  BSA Z-Score change from baseline: 0.2006 (±1.721);
UCD patients [2]; Age 0 to <2 months, Month 3
  BMI Z-Score change from baseline: −0.1617 (±1.026);
  BSA Z-Score change from baseline: 0.2684 (±1.375);
UCD patients [2]; Age 0 to <2 months, Month 4
  BMI Z-Score change from baseline: −0.0264 (±1.682);
  BSA Z-Score change from baseline: 0.2372 (±2.308);
UCD patients [2]; Age 0 to <2 months, Month 5
  BMI Z-Score change from baseline: 0.0828 (±1.142);
  BSA Z-Score change from baseline: 0.1810 (±1.7);
UCD patients [2]; Age 0 to <2 months, Month 6
  BMI Z-Score change from baseline: 0.0136 (±1.721);
  BSA Z-Score change from baseline: 0.2902 (±2.06);
UCD patients [2]; Age 0 to <2 months, Month 9
  BMI Z-Score change from baseline: 0.4614 (±1.253);
  BSA Z-Score change from baseline: 0.1679 (±1.324);
UCD patients [2]; Age 0 to <2 months, Month 12
  BMI Z-Score change from baseline: 0.6646 (±0.9533);
  BSA Z-Score change from baseline: 0.1308 (±0.5037);
UCD patients [2]; Age 0 to <2 months, Month 15
  BMI Z-Score change from baseline: 0.6830 (±0.557);
  BSA Z-Score change from baseline: 0.1595 (±0.7583);
UCD patients [2]; Age 0 to <2 months, Month 18
  BMI Z-Score change from baseline: 0.3308 (±0.2757);
  BSA Z-Score change from baseline: 0.1050 (±0.7352);
UCD patients [2]; Age 0 to <2 months, Month 24
  BMI Z-Score change from baseline: 0.7743 (±0.6496);
  BSA Z-Score change from baseline: 0.7341 (±1.356);
UCD patients [2]; Age 2 Months to <2 Years
  BMI Z-Score baseline: 0.8107 (±2.17);
  BSA Z-Score baseline: 0.7143 (±2.149);
UCD patients [2]; [5]
  BMI Z-Score change from baseline: −0.2385 (±0.7783);
  BSA Z-Score change from baseline: −0.2105 (±0.7413);
UCD patients [2]; [6]
  BMI Z-Score change from baseline: −0.0249 (±0.7486);
  BSA Z-Score change from baseline: −0.0704 (±0.7039);
UCD patients [2]; [7]
  BMI Z-Score change from baseline: 0.1815 (±0.8606);
  BSA Z-Score change from baseline: 0.1065 (±0.7016);
UCD patients [2]; [8]
  BMI Z-Score change from baseline: 0.4434 (±0.9485);
  BSA Z-Score change from baseline: 0.3365 (±0.7767);
UCD patients [2]; [9]
  BMI Z-Score change from baseline: 0.1484 (±0.7629);
  BSA Z-Score change from baseline: 0.1043 (±0.5675);
UCD patients [2]; [10]
  BMI Z-Score change from baseline: 0.2497 (±0.8092);
  BSA Z-Score change from baseline: 0.1842 (±0.622);
UCD patients [2]; [11]
  BMI Z-Score change from baseline: 0.6407 (±0.9869);
  BSA Z-Score change from baseline: 0.4875 (±0.8614);
UCD patients [2]; [12]
  BMI Z-Score change from baseline: 0.4164 (±0.8067);
  BSA Z-Score change from baseline: 0.2944 (±0.7513);
UCD patients [2]; [13]
  BMI Z-Score change from baseline: −0.2997 (±0.1696);
  BSA Z-Score change from baseline: −0.3661 (±0.00932);
UCD patients [2]; [14]
  BMI Z-Score change from baseline: −0.2038 (±00000);
  BSA Z-Score change from baseline: −0.2214 (±00000);
UCD patients [2]; [15]
  BMI Z-Score change from baseline: 0.5581 (±1.24);
  BSA Z-Score change from baseline: 0.4310 (±1.131);
[3]; 8-h time point, HPN-100 Day 10
  Mean blood ammonia: 23.20 µmol/L
[3]; 12-hour time point, HPN-100 Day 10, NaPBA Day 1
  Mean blood ammonia: 28.24 µmol/L
[3]; [16]
  upper 90% CI, blood ammonia 24-hour AUC HPN-100 vs NaPBA: 1.002
  upper 95% CI, blood ammonia 24-hour AUC HPN-100 vs NaPBA: 1.055
[3]; pediatric UCD patients 29 days to <6 years
  median difference between treatments in ammonia AUC (HPN-100 vs NaPBA): -37.84 µmol·h/L
[3]; pediatric UCD patients 29 days to <6 years, non-inferiority upper margin 1.25
  24-hour AUC for blood ammonia, HPN-100 (Day 10) compared with NaPBA (Day 1): non-inferior to NaPBA
[3]; pre-dose and 24 hours post dose
  Mean blood ammonia levels following an overnight fast: normal
UCD patients [4]
  PAA exposure, 24-hour area under the curve, vs NaPBA: very similar
  mean ammonia exposure, 24-hour area under the curve, vs NaPBA: non-inferior

Reference: patent US10668040B2, “Treatment of urea cycle disorders in neonates and infants” (Horizon Therapeutics, LLC, priority 2017, dated 2020)
